Patent US9132134B2, “Methods for treating GI tract disorders” (Neurogastrx, Inc., priority 2012, dated 2015)
Several values for one entry are separate records, joined by “and”; a condition that tells them apart may be missing. Equal values may be shown once.

How the values were obtained:
[1] = tested on: gastric motility in canines; test: Antral manometry (gastric motility) in canines; format: in vivo, canine; settings: for motor dysfunction: canines
Description: Animals were fed an ad libitum chow diet (LabDiet®). After an overnight fast, the dogs were anesthetized with Pentothal (sodium thiopental, 11 mg/kg IV; Abbott Laboratories, North Chicago, Ill.) and maintained on 2-4% isoflurane (Abbott Laboratories) in oxygen (1 L/min) carrier gases delivered from a ventilator after endotracheal intubation. A cannula was placed in the jejunum 20 cm distal to the pylorus for the assessment of antral motility. Dogs were allowed to recover in their individual cages for 2 weeks. All experiments were performed after the dogs were completed recovered from the surgical procedure. The study was performed according to the National Institutes of Health Guidelines on the use of laboratory animals and approved by the Animal Care and Use Committee of the University of Texas Medical Branch at Galveston, Tex. To investigate the effect of the drugs on antral manometry, the study of each drug dose was done on three randomized sessions on separate days following the consumption of one can of solid dog food: 1) a Control session: In which animals received the vehicle only; 2) Dose I session: in which the lower dose of the drug was used; and 3) Dose II session: in which the higher dose of the drug was used (please refer to table for drug doses). Drug administration was performed according to Table 4, below. [table] Antral manometry was performed as follows. Following an overnight fast, an intraluminal water-perfused manometry catheter was inserted into the antrum through the jejunal cannula. Antral manometry recording was initiated after the consumption of one can of solid food and continued for 3 hours. The catheter contained 3 manometric sensors at a 1 cm interval. Dogs were given 10 minutes of accommodation, prior to the start of the recording. For data analysis, motility index (MI), defined as the integrated area (area under curve—AUC) between baseline and contractions per hour, was calculated. For statistical analysis, the Student's t-test was used for assessment of individual differences between groups (High dose, low dose of each drug) compared to control—Microsoft® Excel 2002). All values are expressed as mean±SEM. Significance was considered when p value was ≦0.05.

gastric emptying in rats [2] = test: Solid gastric emptying in rats; format: in vivo, rat (Sprague-Dawley)
Description: Animals: […] The animals received a standard laboratory rat chow and tap water ad libitum. The rats were around 400 g at 14 weeks age when used in gastric emptying study. Drugs: S-Carbidopa was purchased from Sigma (#: C1335). Stock solution of S-Carbidopa was prepared at 5 mg/ml using DMSO as solvent. 80 μl stock solution was further diluted into 1 ml distilled water to make 0.4 mg/ml. The effect of S-Carbidopa (1 mg/kg) on solid gastric emptying was studied. Procedures: Male SD rats were involved in this study. Rats were fasted in cages with metal wired mesh for 24 hours with free access to water; S-carbidopa (1 mg/kg) was administered to the rats by oral gavage. Control rats were not administered S-carbidopa. 15 minutes following administration, rats were given access to 2 g of rat chow pellets for ten minutes. All rats completely ingested the chow within the 10 minute time frame. Rats were sacrificed by sodium pentobarbital (100 mg/kg) overdose 90 min after feeding. The stomach was surgically isolated and removed. Gastric contents were recovered from the stomach, air dried for 48 hours and then weighed. Solid gastric emptying was calculated according to the following formula: Gastric emptying (%)=[1−(dried gastric content in g)/2 g]×100. All values are expressed as mean±SEM.

[3] = tested on: canine cardiac action potentials; test: Canine cardiac action potentials by electrocardiography and telemetry; format: in vivo; settings: dogs; for QTc intervals as compared to vehicle-administered animals: oral gavage
Description: Surgical Implantation of the Telemetry Device and ECG Leads. Anesthesia is introduced to dogs. Balanced gaseous anesthesia is used throughout the surgical procedure. Once anesthetized, animals are shaved and surgically scrubbed, encompassing surgical sites of the right inguinal area, chest and right lateral abdomen. Throughout the surgical procedure, animals are monitored for continuous assessment of vital signs. An incision is made along the right medial thigh and the femoral artery exposed by blunt dissection. Another incision is made in the lateral lumbar area cranial to the iliac crest for a tunneling needle to be passed subcutaneously from the incision on the medial thigh to the lumbar incision. A blood pressure catheter is passed through the needle from the lumbar incision and the needle removed. The femoral artery is ligated distally and incised to insert a catheter that is advanced until the tip resided in the femoral artery/abdominal aorta. The catheter is then secured by ligation. The incision in the lumbar area is enlarged and a subcutaneous pocket created in the left dorsal lumbar area to hold the transmitter body. The transmitter (e.g., Data Sciences International, St Paul, Minn., USA) is inserted into the subcutaneous pocket and secured body. Electrocardiography (ECG) leads are positioned. The incision is closed. Postoperative recovery lasts, e.g., about 2 weeks during which supplemental analgesics/antibiotics are administered as needed. Once the postoperative recovery period is complete, the animal is examined for study acceptability by the staff veterinarian and the implanted transmitter signal verified.
Study Design. […] ECGs, heart rate and arterial blood pressure data are recorded 1 hour prior to and then continuously for at least 6 hours following compound and/or vehicle administration. A blood sample for determination of compound plasma concentrations is collected from all subjects at approximately 6 h post-dose.
ECG Analysis. An ECG waveform morphology assessment, for the entire monitoring period, is completed for each dog by, e.g., a safety pharmacologist or veterinarian cardiologist. Standard ECG intervals (PR, RR, QRS and QT) are automatically measured by the data acquisition system and reported as, e.g., 10 min averages. The signals are collected with Data Sciences International Systems hardware. PR and QT manual overreads are conducted as appropriate. The manual measurements are completed from 50 mm s^−1 tracings at 30 min intervals. A mean of the three waveforms per time point are reported. QT intervals are corrected for heart rate (QTc) values by, e.g., using the formula by Funck-Bretano and Jaillon (1993).
Statistical Analysis. […] Dose-level averages (and accompanying standard deviation (s.d.) of these baseline-adjusted 10 min averages are calculated across study animals. ANOVA (e.g., repeated measures ANOVA) are applied to these baseline-adjusted averages. Pairwise t-tests are applied within the ANOVA to identify the presence of significant differences of the dose levels relative to vehicle. These t-tests are performed at a 0.05/2=0.025 significance level, so that the overall error rate across the comparisons in a given interval are not higher than 0.05. ECG interval data (reported at 30 min intervals) are analyzed using, e.g., repeated-measures ANOVA techniques similar to the systemic blood pressure and heart rate data described above.

dopamine D2 receptor = dopamine D2 receptor (Homo sapiens (Human), UniProt P14416); test: Radioligand binding assay, [3H]spiperone, membranes of D2 receptor expressing cells; settings: [3H]spiperone competition; read-out: Radioligand Binding Affinity (Ki, nM) D2
D3 = D3 (Homo sapiens (Human), UniProt P35462); test: Radioligand binding affinity, D3
α1 = test: Radioligand binding affinity, α1
5HT2 = test: Radioligand binding affinity, 5HT2
5HT3 = 5HT3 (Homo sapiens (Human), UniProt P46098); test: Radioligand binding affinity, 5HT3
5HT4 = 5HT4 (Homo sapiens (Human), UniProt Q13639); test: Radioligand binding affinity, 5HT4
hERG channel = hERG channel (Homo sapiens (Human), UniProt Q12809); test: hERG voltage clamp assay in hERG-expressing cultured cells; format: cell-based; settings: for inhibition at 0.1 µM / inhibition at 1 µM / inhibition at 10 µM: human, hERG-expressing cultured cells, read-out: hERG Activity (% Inhibition of Tail Current); for inhibition at 0.1 µM: 100 nM; for IC50: read-out: concentration necessary to inhibit 50% of the tail currents mediated by hERG channels
gastric emptying in rats [4] = test: Solid gastric emptying in rats; format: in vivo, rat (Sprague-Dawley); settings: preliminary
H1 = H1 (Homo sapiens (Human), UniProt P35367); test: Radioligand binding affinity, H1
[5] = Therapeutic plasma concentrations

Sequence of D3 (P35462 whole entry): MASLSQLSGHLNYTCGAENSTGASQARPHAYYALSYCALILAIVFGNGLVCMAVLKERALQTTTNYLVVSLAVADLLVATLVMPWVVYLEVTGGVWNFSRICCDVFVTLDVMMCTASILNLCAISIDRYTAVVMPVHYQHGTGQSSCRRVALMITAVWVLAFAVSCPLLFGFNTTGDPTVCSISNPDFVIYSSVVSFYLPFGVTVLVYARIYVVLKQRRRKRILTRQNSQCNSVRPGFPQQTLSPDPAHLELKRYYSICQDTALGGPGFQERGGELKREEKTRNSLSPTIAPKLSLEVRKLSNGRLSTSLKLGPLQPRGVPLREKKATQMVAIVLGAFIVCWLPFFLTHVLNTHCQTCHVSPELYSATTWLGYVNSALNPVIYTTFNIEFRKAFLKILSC
Sequence of hERG channel (Q12809 whole entry): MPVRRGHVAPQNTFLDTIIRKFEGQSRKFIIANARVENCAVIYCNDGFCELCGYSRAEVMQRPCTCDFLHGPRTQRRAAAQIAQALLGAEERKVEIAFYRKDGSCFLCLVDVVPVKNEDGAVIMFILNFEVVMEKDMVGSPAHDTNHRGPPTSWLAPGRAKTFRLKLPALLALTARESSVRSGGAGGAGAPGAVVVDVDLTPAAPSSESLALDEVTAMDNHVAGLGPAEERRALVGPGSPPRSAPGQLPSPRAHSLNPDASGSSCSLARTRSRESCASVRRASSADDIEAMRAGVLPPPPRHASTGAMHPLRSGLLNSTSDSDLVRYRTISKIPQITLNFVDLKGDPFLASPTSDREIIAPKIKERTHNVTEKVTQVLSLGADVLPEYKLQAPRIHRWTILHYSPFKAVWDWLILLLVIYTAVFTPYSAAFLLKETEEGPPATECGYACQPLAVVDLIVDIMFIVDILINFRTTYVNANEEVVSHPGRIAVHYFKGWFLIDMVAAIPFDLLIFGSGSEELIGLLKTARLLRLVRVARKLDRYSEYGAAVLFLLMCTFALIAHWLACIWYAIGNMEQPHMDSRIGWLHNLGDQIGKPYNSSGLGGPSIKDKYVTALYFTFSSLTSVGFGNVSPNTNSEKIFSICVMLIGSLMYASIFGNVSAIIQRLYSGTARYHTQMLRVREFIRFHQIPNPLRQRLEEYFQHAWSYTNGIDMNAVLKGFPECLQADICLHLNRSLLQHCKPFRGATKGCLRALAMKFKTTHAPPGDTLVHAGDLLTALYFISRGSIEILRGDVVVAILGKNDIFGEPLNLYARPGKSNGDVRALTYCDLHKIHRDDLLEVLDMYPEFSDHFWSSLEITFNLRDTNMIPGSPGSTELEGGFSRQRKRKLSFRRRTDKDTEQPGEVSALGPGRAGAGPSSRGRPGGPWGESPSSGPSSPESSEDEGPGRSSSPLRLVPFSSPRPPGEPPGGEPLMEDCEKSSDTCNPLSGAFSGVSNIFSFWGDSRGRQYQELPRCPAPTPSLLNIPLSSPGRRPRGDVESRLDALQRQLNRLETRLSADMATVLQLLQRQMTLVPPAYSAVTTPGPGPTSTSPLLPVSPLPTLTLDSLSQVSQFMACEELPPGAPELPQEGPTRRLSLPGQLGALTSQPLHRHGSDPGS
Sequence of dopamine D2 receptor (P14416 whole entry, species assumed): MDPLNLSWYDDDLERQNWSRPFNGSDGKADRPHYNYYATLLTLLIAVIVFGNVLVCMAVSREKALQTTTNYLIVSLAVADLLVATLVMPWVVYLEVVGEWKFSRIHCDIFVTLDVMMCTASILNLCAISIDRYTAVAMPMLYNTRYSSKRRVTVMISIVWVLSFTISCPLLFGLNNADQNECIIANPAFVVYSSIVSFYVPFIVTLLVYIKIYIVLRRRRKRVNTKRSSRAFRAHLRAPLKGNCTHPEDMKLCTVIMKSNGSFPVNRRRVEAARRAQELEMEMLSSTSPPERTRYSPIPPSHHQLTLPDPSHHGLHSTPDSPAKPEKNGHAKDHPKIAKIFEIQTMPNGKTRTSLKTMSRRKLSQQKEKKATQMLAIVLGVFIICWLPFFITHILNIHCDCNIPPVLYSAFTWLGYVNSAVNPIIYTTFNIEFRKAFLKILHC
Sequence of 5HT3 (P46098 24-478, species assumed): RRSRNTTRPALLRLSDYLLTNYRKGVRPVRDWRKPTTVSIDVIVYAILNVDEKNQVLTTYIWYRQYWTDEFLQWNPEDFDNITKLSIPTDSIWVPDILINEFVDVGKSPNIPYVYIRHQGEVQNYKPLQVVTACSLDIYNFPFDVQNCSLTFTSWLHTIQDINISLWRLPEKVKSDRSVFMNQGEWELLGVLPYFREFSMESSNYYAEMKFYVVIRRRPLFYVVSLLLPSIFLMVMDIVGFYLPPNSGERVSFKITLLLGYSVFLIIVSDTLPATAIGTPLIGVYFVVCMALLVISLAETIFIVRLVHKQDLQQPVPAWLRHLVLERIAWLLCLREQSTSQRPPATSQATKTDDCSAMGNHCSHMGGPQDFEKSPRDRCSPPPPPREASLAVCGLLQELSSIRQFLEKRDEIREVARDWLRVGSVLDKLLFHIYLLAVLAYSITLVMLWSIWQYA
Sequence of 5HT4 (Q13639 whole entry, species assumed): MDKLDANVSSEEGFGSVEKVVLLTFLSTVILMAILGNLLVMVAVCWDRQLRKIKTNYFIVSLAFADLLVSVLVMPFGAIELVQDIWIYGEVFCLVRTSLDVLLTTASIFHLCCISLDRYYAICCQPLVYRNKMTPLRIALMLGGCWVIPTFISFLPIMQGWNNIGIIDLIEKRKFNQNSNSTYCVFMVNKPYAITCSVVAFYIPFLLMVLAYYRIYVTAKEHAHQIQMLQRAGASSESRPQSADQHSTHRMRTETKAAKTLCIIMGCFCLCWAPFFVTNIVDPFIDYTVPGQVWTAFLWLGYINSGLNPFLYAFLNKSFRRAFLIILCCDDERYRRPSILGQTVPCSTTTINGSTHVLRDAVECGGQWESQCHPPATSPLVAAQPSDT
Sequence of H1 (P35367 whole entry): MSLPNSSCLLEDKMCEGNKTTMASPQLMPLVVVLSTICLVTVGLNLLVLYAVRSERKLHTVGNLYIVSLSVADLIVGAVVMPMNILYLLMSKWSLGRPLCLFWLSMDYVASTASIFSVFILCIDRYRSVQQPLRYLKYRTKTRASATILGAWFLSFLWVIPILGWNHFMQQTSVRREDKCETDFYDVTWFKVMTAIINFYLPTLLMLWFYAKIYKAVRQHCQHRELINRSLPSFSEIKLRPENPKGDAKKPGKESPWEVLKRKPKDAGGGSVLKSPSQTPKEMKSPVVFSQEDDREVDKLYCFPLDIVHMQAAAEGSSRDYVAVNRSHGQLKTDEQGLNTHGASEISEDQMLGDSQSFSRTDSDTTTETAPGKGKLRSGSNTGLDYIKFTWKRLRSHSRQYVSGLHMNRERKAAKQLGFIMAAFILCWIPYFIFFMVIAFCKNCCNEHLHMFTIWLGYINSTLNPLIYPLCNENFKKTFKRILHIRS

| Structure (SMILES) | motor dysfunction [1] | Ki (D3) [nM] | Ki (α1) [nM] | Ki (5HT2) [nM] | Radioligand Binding Affinity (Ki, nM) 5HT3 (5HT3) | Radioligand Binding Affinity (Ki, nM) 5HT4 (5HT4) | QTc intervals as compared to vehicle-administered animals [3] | Ki (dopamine D2 receptor) [nM] | inhibition at 0.1 µM (hERG channel) [%] | inhibition at 1 µM (hERG channel) [%] | inhibition at 10 µM (hERG channel) [%] | IC50 (hERG channel) [nM] | other results |
| --- | --- | --- | --- | --- | --- | --- | --- | --- | --- | --- | --- | --- | --- |
| C[C@@](Cc1ccc(O)c(O)c1)(NN)C(=O)O [S-Carbidopa, (2S)-3-(3,4-dihydroxyphenyl)-2-hydrazino-2-methylpropanoic acid] | no motor dysfunction was observered |  |  |  |  |  | no significant increases |  |  |  |  |  | motility index (MI), antral manometry ([1]; 1 mg/kg IV, 15 min prior to meal, vs control, p=0.05): robustly increased MI in all three of the channels tested; Gastric emptying (%), mean of the 3 rats (gastric emptying in rats [2]; 1 mg/kg oral gavage, 90 min after feeding): 68.2%; solid gastric emptying compared to control rats (gastric emptying in rats [2]; 1 mg/kg, rats, initial results): improves solid gastric emptying; Gastric emptying (%) (gastric emptying in rats [2]; individual rat, 1 mg/kg oral gavage, 90 min after feeding): 55% and 62% and 87.5%; stomach content (gastric emptying in rats [2]; individual rat, 1 mg/kg oral gavage, dried gastric content (g) 90 min after 2 g chow): 0.9 and 0.76 and 0.25; motor dysfunction (gastric emptying in rats [2]; rats): no motor dysfunction was observed |
| CCN(CC)CCNC(=O)c1cc(Cl)c(N)cc1OC [Metoclopramide] |  | 16 |  |  |  |  |  | 64 |  |  |  |  |  |
| CN(CCOc1ccc(NS(C)(=O)=O)cc1)CCc1ccc(NS(C)(=O)=O)cc1 [dofetilide] |  |  |  |  |  |  |  |  |  |  |  |  | incidence of premature ventricular contractions, T-wave abnormalities, and right bundle branch block ([3]; 0.3 mg/kg oral gavage): increases; QTc intervals ([3]; 0.3 mg/kg oral gavage, post-dose period of 1-6 hours): increased |
| Cl.NCCc1ccc(O)c(O)c1 [dopamine hydrochloride, Dopamine hydrochloride] |  |  |  |  |  |  |  |  |  |  |  |  | motility index (MI), antral manometry ([1]; 50 mg/canine IV, immediately before meal, p=0.06): decreased MI in all channels |

The next lines start with results.

| motor dysfunction [1] | Ki (D3) [nM] | Ki (α1) [nM] | Ki (5HT2) [nM] | Radioligand Binding Affinity (Ki, nM) 5HT3 (5HT3) | Radioligand Binding Affinity (Ki, nM) 5HT4 (5HT4) | Structure (SMILES) | QTc intervals as compared to vehicle-administered animals [3] | Ki (dopamine D2 receptor) [nM] | inhibition at 0.1 µM (hERG channel) [%] | inhibition at 1 µM (hERG channel) [%] | inhibition at 10 µM (hERG channel) [%] | IC50 (hERG channel) [nM] | other results |
| --- | --- | --- | --- | --- | --- | --- | --- | --- | --- | --- | --- | --- | --- |
| no motor dysfunction was observered | 0.61 | 1.9 | 15 | Inactive | Inactive | CS(=O)(=O)c1ccc2c(c1)N(CCCN1CCC(C(N)=O)CC1)c1ccccc1S2 [Metopimazine, 1-[3-[2-(methylsulfonyl)-10H-phenothiazin-10-yl]propyl]-piperidine-4-carboxamide] | no significant increases | 0.07 | 4.5 | 32 | 82 | ~3000 | increase in gastric emptying as compared to vehicle control (gastric emptying in rats [4]; 3 mg/kg): about 40%; increase in gastric emptying as compared to vehicle control (gastric emptying in rats [4]; 10 mg/kg): about 18%; increase in gastric emptying as compared to vehicle control (gastric emptying in rats [4]; pooling the 3 mg/kg and 10 mg/kg doses): about 20% |
|  | > 100 | 210 | 370 | Inactive | Inactive | CS(=O)(=O)c1ccc2c(c1)N(CCCN1CCC(C(=O)O)CC1)c1ccccc1S2 [Metopimazine acid] | no significant increases |  | 0.2 | 4 | 11 | > 10000 | Ki (H1): 140 nM; Therapeutic plasma concentrations [5]: 300 to 900 nM |
